Measurements: ChEMBL document CHEMBL2010677, “Anti-inflammatory and PPAR transactivational effects of secondary metabolites from the roots of Asarum sieboldii” (Bioorg Med Chem Lett, 2012)

Key:
[1] = (§1) Transactivation of PPAR expressed in HepG2 cells after 20 hrs by luminescence assay; assay type: cell-based; settings: HepG2, 20 h
[2] = Inhibition of TNFalpha-induced NFkappaB transcriptional activity in human HepG2 cells pretreated for 1 hr before TNFalpha challenge by luciferase reporter gene analysis
[3] = molecular target: T1, Peroxisome proliferator-activated receptor gamma (Homo sapiens, UniProt P37231); test: Transactivation of GAL4-fused PPARgamma LBD expressed in HepG2 cells after 20 hrs by luminescence assay; assay type: cell-based
T1 sequence (P37231 whole entry): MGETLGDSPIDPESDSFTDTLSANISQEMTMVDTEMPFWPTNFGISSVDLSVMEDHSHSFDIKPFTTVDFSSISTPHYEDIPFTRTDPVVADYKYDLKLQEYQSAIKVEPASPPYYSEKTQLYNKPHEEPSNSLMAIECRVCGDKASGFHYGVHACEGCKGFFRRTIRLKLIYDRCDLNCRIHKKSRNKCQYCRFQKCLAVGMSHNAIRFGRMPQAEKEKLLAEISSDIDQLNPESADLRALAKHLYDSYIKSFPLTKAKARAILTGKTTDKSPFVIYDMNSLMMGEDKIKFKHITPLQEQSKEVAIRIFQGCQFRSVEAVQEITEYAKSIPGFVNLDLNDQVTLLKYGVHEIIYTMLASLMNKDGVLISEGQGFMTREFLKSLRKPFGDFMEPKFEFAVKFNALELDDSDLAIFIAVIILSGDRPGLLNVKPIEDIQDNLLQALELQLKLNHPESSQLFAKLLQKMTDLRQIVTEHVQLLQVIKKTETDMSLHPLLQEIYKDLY

HepG2 [4] = test: Inhibition of NFkappaB-mediated iNOS mRNA expression in human TNFalpha-stimulated human HepG2 cells pretreated for 1 hr before TNFalpha challenge measured after 6 hrs by RT-PCR analysis; assay type: cell-based
[5] = molecular target: T2, Peroxisome proliferator-activated receptor delta (Homo sapiens, UniProt Q03181); test: Transactivation of GAL4-fused PPARbeta LBD expressed in HepG2 cells after 20 hrs by luminescence assay; assay type: cell-based
T2 sequence (Q03181 whole entry): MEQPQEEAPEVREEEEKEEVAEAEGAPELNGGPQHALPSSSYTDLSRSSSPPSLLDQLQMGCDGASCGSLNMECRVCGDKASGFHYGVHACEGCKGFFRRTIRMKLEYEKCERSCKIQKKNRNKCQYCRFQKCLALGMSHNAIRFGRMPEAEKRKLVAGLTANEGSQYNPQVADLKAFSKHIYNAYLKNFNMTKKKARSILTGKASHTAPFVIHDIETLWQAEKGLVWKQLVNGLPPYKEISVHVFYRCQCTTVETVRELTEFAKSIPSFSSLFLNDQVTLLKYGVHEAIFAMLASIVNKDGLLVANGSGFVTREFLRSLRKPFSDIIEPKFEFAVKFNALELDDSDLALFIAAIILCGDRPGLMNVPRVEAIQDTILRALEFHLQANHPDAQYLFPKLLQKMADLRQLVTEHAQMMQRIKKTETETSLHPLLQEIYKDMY

[6] = molecular target: T3, Peroxisome proliferator-activated receptor alpha (Homo sapiens, UniProt Q07869); test: (§2) Transactivation of GAL4-fused PPARalpha LBD expressed in HepG2 cells after 20 hrs by luminescence assay; assay type: cell-based
T3 sequence (Q07869 whole entry): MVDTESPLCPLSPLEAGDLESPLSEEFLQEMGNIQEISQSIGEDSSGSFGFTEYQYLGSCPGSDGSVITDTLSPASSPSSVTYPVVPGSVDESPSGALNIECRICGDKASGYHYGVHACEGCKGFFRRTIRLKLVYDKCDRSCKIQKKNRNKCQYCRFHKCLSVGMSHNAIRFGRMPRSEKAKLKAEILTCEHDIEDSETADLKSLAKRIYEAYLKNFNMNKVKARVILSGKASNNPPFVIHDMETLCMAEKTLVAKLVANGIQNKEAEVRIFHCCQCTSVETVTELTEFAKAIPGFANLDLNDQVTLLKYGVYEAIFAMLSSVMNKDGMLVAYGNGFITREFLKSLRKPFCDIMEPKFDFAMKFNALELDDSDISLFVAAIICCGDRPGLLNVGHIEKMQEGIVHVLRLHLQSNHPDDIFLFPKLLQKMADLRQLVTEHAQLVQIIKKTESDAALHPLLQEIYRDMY

HepG2 [7] = test: Inhibition of NFkappaB-mediated COX2 mRNA expression in human TNFalpha-stimulated human HepG2 cells by RT-PCR analysis; assay type: cell-based
HepG2 [8] = test: Cytotoxicity against human HepG2 cells by MTT assay; assay type: cell-based
[9] = molecular target: T4, Peroxisome proliferator-activated receptor alpha (Homo sapiens) (UniProt Q07869); test: as §2; assay type: cell-based
T4 sequence (whole entry): T3 sequence (Q07869 whole entry)

HepG2 [10] = test: as §1; assay type: cell-based

Row | SMILES | EC50 [1] | IC50 [2] | EC50 [3] | inhibition (HepG2 [4]) | EC50 [5] | EC50 [6] | inhibition (HepG2 [7]) | Activity (HepG2 [8]) | Activity [9] | Activity (HepG2 [10])
1 | CC(C)(Oc1ccc(CCNC(=O)c2ccc(Cl)cc2)cc1)C(=O)O [BEZAFIBRATE] | 1.05 µM | – | – | – | – | – | – | – | – | –
2 | CC=C/C=C\CC/C=C/C=C/C(=O)NCC(C)C | 58.6 µM | 6.4 µM | 52.3 µM | Dose-dependent effect | 51.1 µM | 46.1 µM | Dose-dependent effect | Non-toxic | – | –
3 | C=CCc1ccc(OC)c(OC)c1 [METHYLEUGENOL] | 28 µM | – | 40 µM | – | 50.6 µM | 46.5 µM | – | Non-toxic | – | –
4 | COc1ccc([C@@H](O)[C@H](O)CO)cc1OC | 20.3 µM | – | 19.3 µM | – | 22.6 µM | 15.7 µM | – | Non-toxic | Dose-dependent effect | –
5 | COc1cc([C@H]2OC[C@H]3[C@@H]2CO[C@H]3c2ccc3c(c2)OCO3)cc(OC)c1O | 6.2 µM | – | 22.6 µM | – | 47.6 µM | > 60 µM | – | Non-toxic | – | –
6 | COc1cc([C@@H]2OC[C@@H]3[C@H]2CO[C@H]3c2ccc3c(c2)OCO3)ccc1O [PIPERITOL] | 20.9 µM | – | 18.9 µM | – | 33.9 µM | 53.2 µM | – | Non-toxic | – | –
7 | C/C=C\CC/C=C/C=C/C(=O)NCC(C)C | 2 µM | – | 3.6 µM | – | 4.9 µM | 4 µM | – | Non-toxic | Dose-dependent effect | –
8 | O=C(O)c1cc(/N=N/c2ccc(S(=O)(=O)Nc3ccccn3)cc2)ccc1O [SULFASALAZINE] | – | 0.9 µM | – | – | – | – | – | – | – | –
9 | CC1=CC(=O)C2C(C1=O)C2(C)C (racemic) | > 60 µM | – | – | – | – | – | – | Non-toxic | – | –
10 | COc1cc([C@H]2OC[C@H]3[C@@H]2CO[C@H]3c2ccc(O)c(OC)c2)ccc1O [PINORESINOL] | 10.3 µM | – | 58.6 µM | – | 49.5 µM | > 60 µM | – | Non-toxic | – | Dose-dependent effect
11 | COc1cc([C@H]2OC[C@@H]3[C@H]2CO[C@H]3c2ccc3c(c2)OCO3)ccc1O [PLUVIATILOL] | 1.7 µM | – | 48.7 µM | – | 53.1 µM | > 60 µM | – | Non-toxic | – | –
12 | CCCc1c(OCCCOc2ccc(OCC(=O)O)cc2)ccc(C(C)=O)c1O | – | – | – | – | 0.64 µM | – | – | – | – | –
13 | CC(C)(Oc1ccc(C2CC2(Cl)Cl)cc1)C(=O)O (stereo not drawn) [CIPROFIBRATE] | – | – | – | – | – | 0.9 µM | – | – | – | –
14 | CC(C)(O)C1=C[C@@H](O)[C@@](C)(O)CC1 | 4.3 µM | – | 21.7 µM | – | 48.5 µM | 19.5 µM | – | Non-toxic | Dose-dependent effect | –
15 | c1cc2c(cc1[C@H]1OC[C@H]3[C@@H]1CO[C@H]3c1ccc3c(c1)OCO3)OCO2 [ASARININ] | > 60 µM | 7.1 µM | – | Dose-dependent effect | – | – | Dose-dependent effect | Non-toxic | – | –
16 | c1cc2c(cc1[C@H]1OC[C@H]3[C@@H]1CO[C@@H]3c1ccc3c(c1)OCO3)OCO2 [SESAMIN] | > 60 µM | 9.4 µM | – | Dose-dependent effect | – | – | Dose-dependent effect | Non-toxic | – | –
